Measured values as given in paper PMC10786919, “Design-rules for stapled peptides with in vivo activity and their application to Mdm2/X antagonists” (Nature Communications, 2024).
Values after ≈ are worked out from the molar mass of the structure shown. Where two headings read alike, the source gives them in different places. Positions of bridges follow the written chain, without caps; N, C: chain ends. Non-standard residues stand in square brackets, D forms with d. Residues, ends and D or L forms follow the SMILES beside them. Trp(6-Cl) = N[C@@H](Cc1c[nH]c2cc(Cl)ccc12)C(=O)O; Lys(N3) = [N-]=[N+]=NCCCC[C@H](N)C(=O)O; R8 = C=CCCCCCC[C@@](C)(N)C(=O)O; Cba = N[C@@H](CC1CCC1)C(=O)O; S5 = C=CCCC[C@](C)(N)C(=O)O; Aib = CC(C)(N)C(=O)O; βAla = NCCC(=O)O

Columns and labels:
[1] = Experimental LogD (partition coefficient); details: for logD: Partition Coeff LogD
[2] = Nanoclick permeability assay
Procedure, shortened: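 Azido-peptide permeability was read as loss of NanoBRET signal (donor 450 nm, acceptor 610 nm) after adding NanoBret618-azide at 10 μM final.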

[3] = physchem
[4] = Lactate dehydrogenase (LDH) release assay; format: cell-based
Procedure, shortened: (§1)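 HCT116 cells stably carrying a p53-responsive β-lactamase reporter, seeded at 8000 cells/well, exposed to compound with 0.5% final DMSO. LDH release read with the CytoTox-ONE membrane integrity kit. Values are geometric means of at least three biological replicates.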

[5] = tested on: HCT116 cells; assay: Lactate dehydrogenase (LDH) release assay; format: cell-based
Procedure, shortened: as §1

[6] = Solubility assay (kinetic solubility, PBS pH 7); format: physicochemical; details: pH 7, PBS; for solubility kinetic: pH 7, aqueous buffer, kinetic from dmso stock, read-out: Solubility
Procedure, shortened: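 Std: 10 mM stock → 100 µM in ACN/MeOH/DMSO (10:80:10). Sol. [µM] = (sample peak area / std peak area) × std conc.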

[7] = Nanoclick permeability assay EC50

SMILES	logD ([1]; experimental)	logD ([1]; not stated)	cell entry EC50 [2] [nM]	EPSA [3] [A^2]	EC50 ([4]; 0% FBS 4Hr, read-out: LDH: Cytotoxicity assay: EC50) [nM]	EC50 ([4]; 10% FBS 4Hr, read-out: LDH: Cytotoxicity assay: EC50) [nM]	EC50 ([4]; 10% FBS 16Hr, read-out: LDH: Cytotoxicity assay: EC50) [nM]	LDH: Cytotoxicity assay: % Effect ([5]; 0% FBS 4Hr) [%]	LDH: Cytotoxicity assay: % Effect ([5]; 10% FBS 4Hr) [%]	LDH: Cytotoxicity assay: % Effect ([5]; 10% FBS 16Hr) [%]	solubility kinetic [6] [µM]	cell entry EC50 [2, 7] [nM]	EC50 ([4]; LDH: Cytotoxicity assay: EC50) [nM]	LDH: Cytotoxicity assay: % Effect [5] [%]	Solubility [6]	Partition Coeff LogD [1]
CC(=O)N[C@@H](CCCCN=[N+]=[N-])C(=O)NCCC(=O)N[C@@H](C)C(=O)N[C@H](C(=O)N[C@@H](Cc1ccccc1)C(=O)N[C@]1(C)CCCCCCC=CCCC[C@@](C)(C(=O)N[C@@H](C)C(=O)N[C@@H](C)C(=O)N[C@@H](C)C(N)=O)NC(=O)[C@H](CC2CCC2)NC(=O)[C@H](C)NC(=O)[C@H](C)NC(=O)[C@H](Cc2c[nH]c3ccccc23)NC(=O)[C@H](Cc2ccc(O)cc2)NC(=O)[C@H](C)NC1=O)[C@@H](C)O [MP-350, Azide-ATSP-7041 (L1A, E5A, Q9A, S12A)] (Ac-[Lys(N3)][βAla]ATF[R8]AYWAA[Cba][S5]AAA-NH2; staple 6-13)	3.37	3.37	695	196	> 50700	> 50000	> 50700	-5.38	108.5	-2.204	2 (≈ 3.59 µg/mL)					
CC(=O)N[C@@H](CCCCN=[N+]=[N-])C(=O)NCCC(=O)N[C@@H](CO)C(=O)N[C@H](C(=O)N[C@@H](Cc1ccccc1)C(=O)N[C@]1(C)CCCCCCC=CCCC[C@@](C)(C(=O)N[C@@H](CO)C(=O)N[C@@H](CO)C(=O)N[C@@H](CO)C(N)=O)NC(=O)[C@H](CC2CCC2)NC(=O)[C@H](CCC(N)=O)NC(=O)[C@H](CO)NC(=O)[C@H](Cc2c[nH]c3ccccc23)NC(=O)[C@H](Cc2ccc(O)cc2)NC(=O)[C@H](CO)NC1=O)[C@@H](C)O [MP-667] (Ac-[Lys(N3)][βAla]STF[R8]SYWSQ[Cba][S5]SSS-NH2; staple 6-13)		2.5		208							2 (≈ 3.9 µg/mL)	2230	> 50600	2.286		
CC(=O)N[C@@H](CCCCN=[N+]=[N-])C(=O)NCCC(=O)N[C@@H](CC(C)C)C(=O)N[C@H](C(=O)N[C@@H](Cc1ccccc1)C(=O)N[C@]1(C)CCCCCCC=CCCC[C@@](C)(C(N)=O)NC(=O)[C@H](CC2CCC2)NC(=O)[C@H](CCC(N)=O)NC(=O)[C@H](C)NC(=O)[C@H](Cc2c[nH]c3ccccc23)NC(=O)[C@H](Cc2ccc(O)cc2)NC(=O)[C@H](CCC(=O)O)NC1=O)[C@@H](C)O [MP-326] (Ac-[Lys(N3)][βAla]LTF[R8]EYWAQ[Cba][S5]-NH2; staple 6-13)		2.88		222							3 (≈ 5.22 µg/mL)	215	24800	7.44		
CC(=O)N[C@@H](CCCCN=[N+]=[N-])C(=O)NCCC(=O)N[C@@H](CC(C)C)C(=O)N[C@H](C(=O)N[C@@H](Cc1ccccc1)C(=O)N[C@]1(C)CCCCCCC=CCCC[C@@](C)(C(=O)N[C@@H](CO)C(=O)NC(C)(C)C(=O)N[C@@H](C)C(N)=O)NC(=O)[C@H](CC2CCC2)NC(=O)[C@H](CCC(N)=O)NC(=O)[C@H](C)NC(=O)[C@H](Cc2c[nH]c3ccccc23)NC(=O)[C@H](Cc2ccc(O)cc2)NC(=O)[C@H](CCC(=O)O)NC1=O)[C@@H](C)O [MP-257] (Ac-[Lys(N3)][βAla]LTF[R8]EYWAQ[Cba][S5]S[Aib]A-NH2; staple 6-13)		2.97		210							25 (≈ 49.6 µg/mL)	469	4550	-4.69		
CC(C)C[C@H](NC(=O)CCNC(=O)[C@@H](N)CCCCN=[N+]=[N-])C(=O)N[C@H](C(=O)N[C@@H](Cc1ccccc1)C(=O)N[C@]1(C)CCCCCCC=CCCC[C@@](C)(C(N)=O)NC(=O)[C@H](CC2CCC2)NC(=O)[C@H](CCC(N)=O)NC(=O)[C@H](C)NC(=O)[C@H](Cc2c[nH]c3ccccc23)NC(=O)[C@H](Cc2ccc(O)cc2)NC(=O)[C@H](CCC(=O)O)NC1=O)[C@@H](C)O [MP-327] (H-[Lys(N3)][βAla]LTF[R8]EYWAQ[Cba][S5]-NH2; staple 6-13)		2.83		228								> 10000	> 50600	39.84		
CC(=O)N[C@@H](CCCCN=[N+]=[N-])C(=O)NCCC(=O)N[C@@H](CC(C)C)C(=O)N[C@H](C(=O)N[C@@H](Cc1ccccc1)C(=O)N[C@]1(C)CCCCCCC=CCCC[C@@](C)(C(=O)N[C@@H](CO)C(=O)N[C@@H](C)C(=O)N[C@@H](C)C(N)=O)NC(=O)[C@H](CC2CCC2)NC(=O)[C@H](CCC(N)=O)NC(=O)[C@H](C)NC(=O)[C@H](Cc2c[nH]c3ccccc23)NC(=O)[C@H](Cc2ccc(O)cc2)NC(=O)[C@@H](C)NC1=O)[C@@H](C)O [MP-473] (Ac-[Lys(N3)][βAla]LTF[R8][dA]YWAQ[Cba][S5]SAA-NH2; staple 6-13)		3.49		213								197	> 50000		Poorly Behaved	
CC(=O)N[C@@H](CCCCN=[N+]=[N-])C(=O)NCCC(=O)N[C@@H](CC(C)C)C(=O)N[C@H](C(=O)N[C@@H](Cc1ccccc1)C(=O)N[C@]1(C)CCCCCCC=CCCC[C@@](C)(C(=O)N[C@@H](CO)C(=O)N[C@@H](C)C(=O)N[C@@H](C)C(N)=O)NC(=O)[C@H](CC2CCC2)NC(=O)CNC(=O)[C@H](C)NC(=O)[C@H](Cc2c[nH]c3ccccc23)NC(=O)[C@H](Cc2ccc(O)cc2)NC(=O)[C@H](CCC(=O)O)NC1=O)[C@@H](C)O [MP-262] (Ac-[Lys(N3)][βAla]LTF[R8]EYWAG[Cba][S5]SAA-NH2; staple 6-13)		2.85		207							87 (≈ 165 µg/mL)	106	> 50600			
CC(=O)N[C@@H](CCCCN=[N+]=[N-])C(=O)NCCC(=O)N[C@@H](CC(C)C)C(=O)N[C@H](C(=O)N[C@@H](Cc1ccccc1)C(=O)N[C@]1(C)CCCCCCC=CCCC[C@@](C)(C(=O)N[C@H](C)C(=O)N[C@@H](C)C(=O)N[C@@H](C)C(N)=O)NC(=O)[C@H](CC2CCC2)NC(=O)[C@H](CCC(N)=O)NC(=O)[C@H](C)NC(=O)[C@H](Cc2c[nH]c3ccccc23)NC(=O)[C@H](Cc2ccc(O)cc2)NC(=O)[C@H](CCC(=O)O)NC1=O)[C@@H](C)O [MP-475] (Ac-[Lys(N3)][βAla]LTF[R8]EYWAQ[Cba][S5][dA]AA-NH2; staple 6-13)		2.92		224							17 (≈ 33.2 µg/mL)	155	> 50000			
CC(=O)N[C@@H](CCCCN=[N+]=[N-])C(=O)NCCC(=O)N[C@@H](CC(C)C)C(=O)N[C@H](C(=O)N[C@@H](Cc1ccccc1)C(=O)N[C@]1(C)CCCCCCC=CCCC[C@@](C)(C(=O)N[C@@H](CO)C(=O)N[C@@H](C)C(=O)N[C@@H](C)C(N)=O)NC(=O)[C@H](CC2CCC2)NC(=O)[C@H](CCC(N)=O)NC(=O)[C@H](C)NC(=O)[C@H](Cc2c[nH]c3ccccc23)NC(=O)[C@H](CCC(=O)O)NC(=O)[C@H](C)NC1=O)[C@@H](C)O [MP-029] (Ac-[Lys(N3)][βAla]LTF[R8]AEWAQ[Cba][S5]SAA-NH2; staple 6-13)				182								70	> 50700		Poorly Behaved	Poorly Behaved
CC(=O)N[C@@H](CCCCN=[N+]=[N-])C(=O)NCCC(=O)N[C@@H](CC(C)C)C(=O)N[C@H](C(=O)N[C@@H](Cc1ccccc1)C(=O)N[C@]1(C)CCCCCCC=CCCC[C@@](C)(C(=O)N[C@@H](CO)C(=O)N[C@@H](C)C(=O)N[C@@H](C)C(N)=O)NC(=O)[C@H](CC2CCC2)NC(=O)[C@H](CCC(N)=O)NC(=O)[C@H](C)NC(=O)[C@H](Cc2c[nH]c3ccccc23)NC(=O)[C@H](Cc2ccc(O)cc2)NC(=O)CNC1=O)[C@@H](C)O [MP-210] (Ac-[Lys(N3)][βAla]LTF[R8]GYWAQ[Cba][S5]SAA-NH2; staple 6-13)		3.35		198							2 (≈ 3.8 µg/mL)	279	> 50600			
CC(=O)N[C@@H](CCCCN=[N+]=[N-])C(=O)NCCC(=O)N[C@H](CC(C)C)C(=O)N[C@H](C(=O)N[C@@H](Cc1ccccc1)C(=O)N[C@]1(C)CCCCCCC=CCCC[C@@](C)(C(=O)N[C@@H](CO)C(=O)N[C@H](C)C(=O)N[C@@H](C)C(N)=O)NC(=O)[C@H](CC2CCC2)NC(=O)[C@H](C)NC(=O)[C@H](C)NC(=O)[C@H](Cc2c[nH]c3cc(Cl)ccc23)NC(=O)[C@H](Cc2ccc(O)cc2)NC(=O)[C@H](C)NC1=O)[C@@H](C)O [MP-493] (Ac-[Lys(N3)][βAla][dL]TF[R8]AY[Trp(6-Cl)]AA[Cba][S5]S[dA]A-NH2; staple 6-13)		3.93		187							< 1	84.5	> 50600			
